Measurements taken from ChEMBL document CHEMBL4813965, “Discovery of CYR715: A novel carboxylic acid-containing soluble guanylate cyclase stimulator” (Bioorg Med Chem Lett, 2021).
≈ marks a conversion by molar mass, not a printed value.

What was measured:
[1] = Apparent permeability across apical to basolateral side of dog MDR1-MDCK2 cells; format: ADME, cell-based, Canis lupus familiaris, MDCK-II; conditions: MDCK-MDR1
[2] = Solubility of the compound at pH 7.0; format: physicochemical; conditions: buffer
[3] = AUC in rat at 1 mg/kg, po; format: ADME, organism-based; design: dose 1 mg/kg; conditions: in vivo
[4] = Drug metabolism in rat assessed as formation of reactive and migrated acyl glucuronides metabolites; format: ADME
[5] = Oral bioavailability in rat at 1 mg/kg; format: ADME, organism-based; conditions: in vivo

| SMILES | Papp A→B [1] [×10⁻⁶ cm/s] | solubility [2] [µg/mL] | AUC [3] [ng·h/mL] | Drug metabolism [4] | bioavailability [5] [%] |
| --- | --- | --- | --- | --- | --- |
| Oc1nc(-c2cc(-c3ccon3)n(Cc3ccccc3F)n2)ncc1F | 24 | 3 (≈ 8.44 µM) | 25000 | – | – |
| C[C@@H]1CCCN(c2nc(-c3cc(-c4ccon4)n(Cc4ccccc4F)n3)ncc2F)[C@@H]1C(=O)O | 40 | 21 (≈ 43.7 µM) | 3700 | Metabolite_Detected | > 100 |
| O=C(O)C1CCN(c2nc(-c3cc(-c4ccon4)n(Cc4ccccc4F)n3)ncc2F)CC1 | – | – | – | Metabolite_Detected | – |
| C[C@H]1CCCN(c2nc(-c3cc(-c4ccon4)n(Cc4ccccc4F)n3)ncc2F)[C@H]1C(=O)O | – | – | – | Metabolite_Detected | – |
| O=C(O)[C@@H]1CCCCN1c1nc(-c2cc(-c3ccon3)n(Cc3ccccc3F)n2)ncc1F | – | – | – | Metabolite_Detected | – |
| O=C(O)[C@H]1CCCCN1c1nc(-c2cc(-c3ccon3)n(Cc3ccccc3F)n2)ncc1F | – | – | – | Metabolite_Detected | – |
| O=C(O)C1CCCN(c2nc(-c3cc(-c4ccon4)n(Cc4ccccc4F)n3)ncc2F)C1 (racemic) | – | – | – | Metabolite_Detected | – |
